The source of these data is US20260097047A1, “Small molecule inhibitors of the ribosome biogenesis factor NVL2” (Board of Regents, The University of Texas System, priority 2023, published 2026).

The first assay deals with HCT116 cells. The experiment in a line: Cell viability assay (CellTiter-Glo, 72 hours) in HCT116 human colorectal cancer cells. As to conditions: Homo sapiens, HCT-116; Table 4; HCT116, 72 hours; read-out: Activity. It counts as cell-based. The gist of the method: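 2,000 cells/well adhered overnight, then compound added by digital dispenser with DMSO normalized to 0.5%. Viability read after 72 h at 37 °C by ATP-based CellTiter-Glo luminescence. IC50 from ten-point curves baseline-corrected to vehicle, five-parameter asymmetric least-squares fit.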
A general note: ATP-based viability assays read luminescence as a measure of living cells.
Consider `CC#CCN1C(=O)c2ccccc2Sc2cc(NC(=S)Nc3ccc(OC)nc3)ccc21` [1-(10-(But-2-yn-1-yl)-11-oxo-10,11-dihydrodibenzo[b,f][1,4]thiazepin-7-yl)-3-(6-methoxypyridin-3-yl)thiourea], for which the IC50 is less than 500 nM.

Still in this assay, the particulars now being: Homo sapiens, HCT-116; Table 5; HCT116, 72 hours; read-out: Activity.
Take `CC#CCN1C(=O)c2ccccc2Sc2cc(Nc3nccc(C#N)c3C)ccc21` [2-((10-(But-2-yn-1-yl)-11-oxo-10,11-dihydrodibenzo[b,f][1,4]thiazepin-7-yl)amino)-3-methylisonicotinonitrile]: the IC50 is less than 500 nM. On the same count and under the same terms, the value for `CCC/C=C/CN1C(=O)c2ccccc2Sc2cc(Nc3ccccn3)ccc21` [(E)-10-(Hex-2-en-1-yl)-7-(pyridin-2-ylamino)dibenzo[b,f][1,4]thiazepin-11 (10H)-one] was 500 to 1000 nM; that for `CC#CCN1C(=O)c2ccc(F)cc2Sc2cc(Nc3ncccc3C#N)ccc21` [2-((10-(But-2-yn-1-yl)-3-fluoro-11-oxo-10,11-dihydrodibenzo[b,f][1,4]thiazepin-7-yl)amino) nicotinonitrile] was less than 500 nM. The same measure, in the same setting: the value for `CC#CCN1C(=O)c2ccc(F)cc2Sc2cc(Nc3nccnc3OC)ccc21` [10-(But-2-yn-1-yl)-3-fluoro-7-((3-methoxypyrazin-2-yl)amino)dibenzo[b,f][1,4]thiazepin-11 (10H)-one] was 500 to 1000 nM; that for `CC#CCN1C(=O)c2ccccc2Sc2cc(Nc3ccncc3C#N)ccc21` [4-((10-(But-2-yn-1-yl)-11-oxo-10,11-dihydrodibenzo[b,f][1,4]thiazepin-7-yl)amino) nicotinonitrile] was less than 500 nM. The same measure, in the same setting: the value for `CC#CCN1C(=O)c2ccc(C#N)cc2Sc2cc(Nc3nc(C)cnc3C)ccc21` [10-(But-2-yn-1-yl)-7-((3,6-dimethylpyrazin-2-yl)amino)-11-oxo-10,11-dihydrodibenzo[b,f][1,4]thiazepine-3-carbonitrile] was less than 500 nM; that for `CC#CCN1C(=O)c2ccccc2Sc2cc(Nc3ncnc(C#N)c3C)ccc21` [6-((10-(But-2-yn-1-yl)-11-oxo-10,11-dihydrodibenzo[b,f][1,4]thiazepin-7-yl)amino)-5-methylpyrimidine-4-carbonitrile] was less than 500 nM.

Still in this assay, the particulars now being: Homo sapiens, HCT-116; Table 6; HCT116, 72 hours; read-out: Activity.
For `CC#CCN1C(=O)c2ccccc2Sc2cc(NC3CCOC3)cnc21` (centres unmarked) [11-(But-2-yn-1-yl)-3-((tetrahydrofuran-3-yl)amino)benzo[f]pyrido[3,2-b][1,4]thiazepin-10(11H)-one], the IC50 was less than 500 nM.

The same assay, now with this note: Homo sapiens, HCT-116; Table 9; HCT116, 72 hours; read-out: Activity.
Turning to `CC#CCN1C(=O)c2ccccc2C(C)c2cc(NC(=O)c3ccc(OC)cc3)ccc21` (centres unmarked) [Table 9: —CH2CCMe; 4-MeOPh; CHMe, N-(5-(But-2-yn-1-yl)-11-methyl-6-oxo-6,11-dihydro-5H-dibenzo[b,e]azepin-2-yl)-4-methoxybenzamide], the IC50 was less than 500 nM.

Still in this assay, the particulars now being: Table 1; HCT116, 72 hours; read-out: Activity.
For the molecule `CC#CCN1C(=O)c2ccc(Cl)cc2Sc2cc(NC(=O)N3CCC3)ccc21`, the IC50 was less than 500 nM.

Still in this assay, the particulars now being: Table 4; HCT116, 72 hours; read-out: Activity.
As to `CC#CCN1C(=O)c2ccccc2Sc2cc(NC(=S)N[C@H]3C[C@@H](OC)C3)cnc21` [Table 4: —CH2CCMe; cis-3-MeOcBu; N], the IC50 was less than 500 nM. `CC#CCN1C(=O)c2ccccc2Sc2cc(NC(=S)Nc3ccc(OC(F)F)cc3)cnc21` [Table 4: —CH2CCMe; 4-F2HCOPh; N]: the IC50 was less than 500 nM.

With `CC#CCN1C(=O)c2ccccc2Sc2cc(NC(=S)N[C@H]3C[C@@H](O)C3)ccc21` [Table 4: —CH2CCMe; cis-3-OH-cBu; CH], the IC50 is less than 500 nM.

The assay is the same for the next values; noted with them: Table 5; HCT116, 72 hours; read-out: Activity.
For `C#CCN1C(=O)c2ccccc2Sc2cc(Nc3ncc(C)nc3C)cnc21`, the IC50 is less than 500 nM.

With `C#CCN1C(=O)c2ccccc2Sc2cc(Nc3nnccc3C)ccc21`, the IC50 is less than 500 nM. The same measure, in the same setting: as for `CC#CCN1C(=O)c2ccccc2Sc2cc(Nc3nc(C#N)ccc3C)cnc21`, the figure is less than 500 nM; as for `CC#CCN1C(=O)c2ccccc2Sc2cc(Nc3cc(C)cnn3)cnc21`, less than 500 nM.

Still in this assay, the particulars now being: Table 6; HCT116, 72 hours; read-out: Activity.
`CC#CCN1C(=O)c2ccccc2Sc2cc(NCCCO)ccc21` [Table 6: —CH2CCMe; (CH2)3OH; CH/CH; S]: the IC50 is less than 500 nM. Same read-out and setting: the value for `C#CCN1C(=O)c2ccccc2Sc2cc(NC3CC4(COC4)C3)cnc21` was less than 500 nM; that for `CC#CCN1C(=O)c2ccccc2Sc2cc(NC3CC(OC)C3)cnc21` (centres unmarked) [Table 6: —CH2CCMe; 3-MeOcBu; CH/N; S] was less than 500 nM.

The assay is the same for the next values; noted with them: Table 7; cell viability assay, CellTiter-Glo, 72 hours; scaffold drawing 42 with R^2, R^3, X/Y, Z; read-out: Activity.
Take `C=CCN1C(=O)c2ccc(F)cc2Sc2cc(NC(=O)c3ccc4scnc4c3)ccc21`: the IC50 was less than 500 nM. Turning to `C#Cc1ccc(C(=O)Nc2ccc3c(c2)Sc2ccccc2C(=O)N3CCOC)cc1` [—(CH2)2OMe; 4-HCCPh; CH/CH; S], the IC50 lay within 500 to 1000 nM. Still for that read-out and setting: as for `COCCN1C(=O)c2ccccc2Sc2cc(NC(=O)c3ccc(OC(F)(F)F)cc3)ccc21` [—(CH2)2OMe; 4-CF3OPh; CH/CH; S], the figure is 1000 to 5000 nM; as for `COCCN1C(=O)c2ccccc2Sc2cc(NC(=O)c3ccc4oc(C)nc4c3)ccc21`, less than 500 nM; as for `COCCN1C(=O)c2ccccc2Sc2cc(NC(=O)c3cccc(C#N)c3)ccc21` [—(CH2)2OMe; 3-CNPh; CH/CH; S], 1000 to 5000 nM.

Still in this assay, the particulars now being: Table 8; analogs of scaffold drawing 43 defined by R^2, R^3, X/Y, W; read-out: Activity (IC50 class, cell viability assay).
In the case of `CC#CCN1C(=O)c2ccccc2Sc2cc(NC(=O)[C@H]3C[C@@H](O)C3)ccc21` [—CH2CCMe; cis-3-OH-cBu; CH/CH; CH], the IC50 is less than 500 nM. Same read-out and setting: the value for `CC#CCN1C(=O)c2ccccc2Sc2cc(NC(=O)C34CC(OC)(C3)C4)ccc21` [listing 1 of 2 here] was less than 500 nM; that for `CC#CCN1C(=O)c2ccc(Cl)cc2Sc2cc(NC(=O)CCCO)ccc21` [—CH2CCMe; (CH2)3OH; CCl/CH; CH] was less than 500 nM.

`CC#CCN1C(=O)c2ccc(Cl)cc2Sc2cc(NC(=O)C3CC3CO)cnc21` (racemic) [—CH2CCMe; trans-2-HOCH2-cPr; CCI/CH; N]: the IC50 was less than 500 nM. With `CC#CCN1C(=O)c2cc(F)ccc2Sc2cc(NC(=O)C34CC(O)(C3)C4)cnc21`, the IC50 was less than 500 nM. The same measure, in the same setting: the value for `CC#CCN1C(=O)c2ccccc2Sc2cc(NC(=O)c3ccc(OC)cc3)ccc21` [—CH2CCMe; 4-MeOPh; CH/CH; CH] was less than 500 nM. Same read-out and setting: the value for `COC[C@@H]1C[C@H]1C(=O)Nc1ccc2c(c1)Sc1cc(Cl)ccc1C(=O)N2CC#CCl` (relative stereo) [—CH2CCCl; trans-2-MeOCH2-cPr; CCl/CH; CH] was less than 500 nM; that for `O=C(Nc1cnc2c(c1)Sc1ccccc1C(=O)N2CC#CC1CC1)C1CC2(COC2)C1` was less than 500 nM.

`CC#CCN1C(=O)c2ccccc2Sc2cc(NC(=O)c3ccoc3)cnc21` [—CH2CCMe; furan-3-yl; CH/CH; N]: the IC50 is less than 500 nM.

As for `CC#CCN1C(=O)c2cc(F)ccc2Sc2cc(NC(=O)CCCOC)ccc21` [—CH2CCMe; (CH2)3OMe; CH/CF; CH], the IC50 was less than 500 nM.

For `CC#CCN1C(=O)c2ccccc2Sc2cc(NC(=O)C3CC4(CC(=O)C4)C3)cnc21`, the IC50 is less than 500 nM.

Consider `O=C(Nc1ccc2c(c1)Sc1cc(Cl)ccc1C(=O)N2CC#CCl)C1CC2(CC(=NO)C2)C1` (centres unmarked), for which the IC50 is less than 500 nM. Still for that read-out and setting: as for `CC#CCN1C(=O)c2cc(F)ccc2Sc2cc(NC(=O)C3CC4(COC4)C3)ccc21`, the figure is less than 500 nM; as for `CC#CCN1C(=O)c2ccc(Cl)cc2Sc2cc(NC(=O)C34CC(O)(C3)C4)ccc21`, less than 500 nM; as for `CC#CCN1C(=O)c2ccccc2Sc2cc(NC(=O)C(C)CCOC)cnc21` (centres unmarked) [—CH2CCMe; MeO(CH2)2CHMe-; CH/CH; N], less than 500 nM. Still for that read-out and setting: as for `COC12CC(C(=O)Nc3cnc4c(c3)Sc3ccccc3C(=O)N4CC#CC3CC3)(C1)C2`, the figure is less than 500 nM. The same measure, in the same setting: the value for `CC#CCN1C(=O)c2cc(F)ccc2Sc2cc(NC(=O)OCCOC)ccc21` [—CH2CCMe; O(CH2)2OMe; CH/CF; CH] was less than 500 nM; that for `O=C(Nc1cnc2c(c1)Sc1ccccc1C(=O)N2CC#CCl)C1CC2(CC(=NO)C2)C1` (centres unmarked) was less than 500 nM; that for `C#CCN1C(=O)c2ccccc2Sc2cc(NC(=O)[C@H]3C[C@H](OC)C3)ccc21` [—CH2CCH; trans-3-MeOcBu; CH/CH; CH] was less than 500 nM. As to `CC#CCN1C(=O)c2ccc(Cl)cc2Sc2cc(NC(=O)NCCOC)ccc21` [—CH2CCMe; NH(CH2)2OMe; CCl/CH; CH], the IC50 is less than 500 nM.

With `CC#CCN1C(=O)c2ccccc2Sc2cc(NC(=O)C#CC)ccc21` [—CH2CCMe; CCMe; CH/CH; CH], the IC50 is less than 500 nM.

Still in this assay, the particulars now being: Table 9; HCT116, 72 hours; read-out: Activity.
Turning to `CC#CCN1C(=O)c2ccccc2C(C)c2cc(NC(=O)[C@H]3C[C@H](O)C3)ccc21` (stereo partly drawn) [Table 9: —CH2CCMe; trans-3-OH-cBu; CHMe], the IC50 is less than 500 nM. As for `CC#CCN1C(=O)c2ccccc2C(C#N)c2cc(NC(=O)C34CC(OC)(C3)C4)ccc21` (centres unmarked), the IC50 is less than 500 nM. Consider `CC#CCN1C(=O)c2ccccc2C(C)c2cc(NC(=O)[C@H]3C[C@@H](OC)C3)ccc21` (stereo partly drawn) [Table 9: —CH2CCMe; cis-3-MeOcBu; CHMe], for which the IC50 is less than 500 nM. With `CC#CCN1C(=O)c2ccccc2Cc2cc(NC(=O)[C@H]3C[C@H](OC)C3)ccc21` [Table 9: —CH2CCMe; trans-3-MeOcBu; CH2], the IC50 is less than 500 nM. Still for that read-out and setting: as for `COCC1CC(C(=O)Nc2ccc3c(c2)C(C#N)c2ccccc2C(=O)N3CC#CC2CC2)C1` (centres unmarked) [Table 9: —CH2CCcPr; 3-MeOCH2-cBu; CHCN], the figure is less than 500 nM; as for `CC#CCN1C(=O)c2ccccc2C(C)(O)c2cc(NC(=O)C3CC(COC)C3)ccc21` (centres unmarked) [Table 9: —CH2CCMe; 3-MeOCH2-cBu; CMeOH], less than 500 nM. Turning to `CC#CCN1C(=O)c2ccccc2C(C#N)c2cc(NC(=O)C3CC4(CC(=NO)C4)C3)ccc21` (centres unmarked), the IC50 is less than 500 nM.

Staying with this assay, now noted: cell viability assay; Table 10 analogs of scaffold drawing 45 defined by R2, R3, X/Y, W; read-out: Activity.
Turning to `CC#CCN1C(=O)c2ccccc2Sc2cc(NC(=O)C34CC(OC)(C3)C4)ccc21` [listing 2 of 2 here], the IC50 was less than 500 nM. The same measure, in the same setting: the value for `C#CCN1C(=O)c2ccccc2Sc2cc(NC(=O)[C@H]3C[C@H](OC)C3)ccc21` [—CH2CCH; trans-3-MeOcBu; CH/CH; CH] was less than 500 nM.
